Each block holds one compound with its values, some of them ahead of it.
Tested on: NCI-H196 complex spheroid growth, percent test/control
Test: Anticancer human tumor NCI-H196 cell line growth inhibition [AhR];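 also: seven days of drug exposure starting three days after plating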;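 as to viability, T/C: 100% = DMSO vehicle control wells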
Details: for IC50: curve of first compound; for viability, T/C: stronger effect = lower value
In short: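 Spheroids combined tumor cells with HUVEC endothelial cells and human MSCs as stroma. AhR antagonists were paired with standard or investigational drugs, each dosed in half-log steps down from near clinical Cmax, or from 10 microM where Cmax was unknown.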

[1] = second compound 0.1 µM, first compound 0.0316 µM
[2] = second compound 0.1 µM, first compound 0.1 µM
[3] = second compound 0.1 µM, first compound 0.316 µM
[4] = second compound 0.1 µM, first compound 1 µM
[5] = second compound 0.1 µM, first compound 3.16 µM
[6] = second compound 0.1 µM, first compound 10 µM
[7] = second compound 0.316 µM, first compound 0.0316 µM
[8] = second compound 0.316 µM, first compound 0.1 µM
[9] = second compound 0.316 µM, first compound 0.316 µM
[10] = second compound 0.316 µM, first compound 1 µM
[11] = second compound 0.316 µM, first compound 3.16 µM
[12] = second compound 0.316 µM, first compound 10 µM
[13] = second compound 1 µM, first compound 0.0316 µM
[14] = second compound 1 µM, first compound 0.1 µM
[15] = second compound 1 µM, first compound 0.316 µM
[16] = second compound 1 µM, first compound 1 µM
[17] = second compound 1 µM, first compound 3.16 µM
[18] = second compound 1 µM, first compound 10 µM
[19] = second compound 3.16 µM, first compound 0.0316 µM
[20] = second compound 3.16 µM, first compound 0.1 µM
[21] = second compound 3.16 µM, first compound 0.316 µM
[22] = second compound 3.16 µM, first compound 1 µM
[23] = second compound 3.16 µM, first compound 3.16 µM
[24] = second compound 3.16 µM, first compound 10 µM
[25] = second compound 10 µM, first compound 0.0316 µM
[26] = second compound 10 µM, first compound 0.1 µM
[27] = second compound 10 µM, first compound 0.316 µM
[28] = second compound 10 µM, first compound 1 µM
[29] = second compound 10 µM, first compound 3.16 µM
[30] = second compound 10 µM, first compound 10 µM

IC50 (second compound 0.1 µM): > 10 µM
IC50 (second compound 0.316 µM): > 10 µM
IC50 (second compound 1 µM): > 10 µM
IC50 (second compound 3.16 µM): > 10 µM
IC50 (second compound 10 µM): > 10 µM
SMILES: CC1(C)CCC(CN2CCN(c3ccc(C(=O)NS(=O)(=O)c4ccc(NCC5CCOCC5)c([N+](=O)[O-])c4)c(Oc4cnc5[nH]ccc5c4)c3)CC2)=C(c2ccc(Cl)cc2)C1 + CC(CO)NC(=O)c1cc(-c2ccc(Cl)cc2)nn(-c2cnn(C)c2)c1=O
viability, T/C [1]: 99.8%
viability, T/C [2]: 100%
viability, T/C [3]: 98.9%
viability, T/C [4]: 98.2%
viability, T/C [5]: 106%
viability, T/C [6]: 104%
viability, T/C [7]: 100%
viability, T/C [8]: 101%
viability, T/C [9]: 100%
viability, T/C [10]: 101%
viability, T/C [11]: 103%
viability, T/C [12]: 86.9%
viability, T/C [13]: 99.7%
viability, T/C [14]: 98.8%
viability, T/C [15]: 96.5%
viability, T/C [16]: 109%
viability, T/C [17]: 106%
viability, T/C [18]: 104%
viability, T/C [19]: 98.8%
viability, T/C [20]: 101%
viability, T/C [21]: 108%
viability, T/C [22]: 108%
viability, T/C [23]: 113%
viability, T/C [24]: 99.3%
viability, T/C [25]: 104%
viability, T/C [26]: 113%
viability, T/C [27]: 99.9%
viability, T/C [28]: 115%
viability, T/C [29]: 116%
viability, T/C [30]: 96%

IC50 (second compound 0.1 µM): > 3 µM
IC50 (second compound 0.316 µM): > 3 µM
IC50 (second compound 1 µM): > 3 µM
IC50 (second compound 3.16 µM): > 3 µM
IC50 (second compound 10 µM): > 3 µM
SMILES: CCN(c1cc(-c2ccc(CN3CCOCC3)cc2)cc(C(=O)NCc2c(C)cc(C)[nH]c2=O)c1C)C1CCOCC1 + CC(CO)NC(=O)c1cc(-c2ccc(Cl)cc2)nn(-c2cnn(C)c2)c1=O
viability, T/C (second compound 0.1 µM, first compound 0.00949 µM): 111%
viability, T/C (second compound 0.1 µM, first compound 0.03 µM): 111%
viability, T/C (second compound 0.1 µM, first compound 0.0949 µM): 105%
viability, T/C (second compound 0.1 µM, first compound 0.3 µM): 108%
viability, T/C (second compound 0.1 µM, first compound 0.949 µM): 111%
viability, T/C (second compound 0.1 µM, first compound 3 µM): 107%
viability, T/C (second compound 0.316 µM, first compound 0.00949 µM): 123%
viability, T/C (second compound 0.316 µM, first compound 0.03 µM): 118%
viability, T/C (second compound 0.316 µM, first compound 0.0949 µM): 105%
viability, T/C (second compound 0.316 µM, first compound 0.3 µM): 111%
viability, T/C (second compound 0.316 µM, first compound 0.949 µM): 118%
viability, T/C (second compound 0.316 µM, first compound 3 µM): 121%
viability, T/C (second compound 1 µM, first compound 0.00949 µM): 112%
viability, T/C (second compound 1 µM, first compound 0.03 µM): 116%
viability, T/C (second compound 1 µM, first compound 0.0949 µM): 113%
viability, T/C (second compound 1 µM, first compound 0.3 µM): 117%
viability, T/C (second compound 1 µM, first compound 0.949 µM): 118%
viability, T/C (second compound 1 µM, first compound 3 µM): 118%
viability, T/C (second compound 3.16 µM, first compound 0.00949 µM): 121%
viability, T/C (second compound 3.16 µM, first compound 0.03 µM): 112%
viability, T/C (second compound 3.16 µM, first compound 0.0949 µM): 121%
viability, T/C (second compound 3.16 µM, first compound 0.3 µM): 112%
viability, T/C (second compound 3.16 µM, first compound 0.949 µM): 123%
viability, T/C (second compound 3.16 µM, first compound 3 µM): 108%
viability, T/C (second compound 10 µM, first compound 0.00949 µM): 120%
viability, T/C (second compound 10 µM, first compound 0.03 µM): 127%
viability, T/C (second compound 10 µM, first compound 0.0949 µM): 123%
viability, T/C (second compound 10 µM, first compound 0.3 µM): 115%
viability, T/C (second compound 10 µM, first compound 0.949 µM): 115%
viability, T/C (second compound 10 µM, first compound 3 µM): 124%

IC50 (second compound 0.1 µM): > 10 µM
IC50 (second compound 0.316 µM): > 10 µM
IC50 (second compound 1 µM): > 10 µM
IC50 (second compound 3.16 µM): > 10 µM
IC50 (second compound 10 µM): > 10 µM
SMILES: COc1cc(Nc2ncc3c(n2)-c2ccc(Cl)cc2C(c2c(F)cccc2OC)=NC3)ccc1C(=O)O + CC(CO)NC(=O)c1cc(-c2ccc(Cl)cc2)nn(-c2cnn(C)c2)c1=O
viability, T/C [1]: 91.5%
viability, T/C [2]: 107%
viability, T/C [3]: 116%
viability, T/C [4]: 112%
viability, T/C [5]: 111%
viability, T/C [6]: 138%
viability, T/C [7]: 103%
viability, T/C [8]: 106%
viability, T/C [9]: 119%
viability, T/C [10]: 113%
viability, T/C [11]: 127%
viability, T/C [12]: 116%
viability, T/C [13]: 101%
viability, T/C [14]: 98.9%
viability, T/C [15]: 112%
viability, T/C [16]: 111%
viability, T/C [17]: 136%
viability, T/C [18]: 134%
viability, T/C [19]: 107%
viability, T/C [20]: 108%
viability, T/C [21]: 121%
viability, T/C [22]: 115%
viability, T/C [23]: 130%
viability, T/C [24]: 132%
viability, T/C [25]: 107%
viability, T/C [26]: 109%
viability, T/C [27]: 126%
viability, T/C [28]: 122%
viability, T/C [29]: 127%
viability, T/C [30]: 131%

IC50 (second compound 0.1 µM): > 0.1 µM
IC50 (second compound 0.316 µM): > 0.1 µM
IC50 (second compound 1 µM): > 0.1 µM
IC50 (second compound 3.16 µM): > 0.1 µM
IC50 (second compound 10 µM): > 0.1 µM
SMILES: Cn1ncnc1C1c2n[nH]c(=O)c3cc(F)cc(c23)NC1c1ccc(F)cc1 (stereo not given) + CC(CO)NC(=O)c1cc(-c2ccc(Cl)cc2)nn(-c2cnn(C)c2)c1=O
viability, T/C (second compound 0.1 µM, first compound 0.000316 µM): 111%
viability, T/C (second compound 0.1 µM, first compound 0.001 µM): 107%
viability, T/C (second compound 0.1 µM, first compound 0.00316 µM): 103%
viability, T/C (second compound 0.1 µM, first compound 0.01 µM): 102%
viability, T/C [1]: 113%
viability, T/C [2]: 103%
viability, T/C (second compound 0.316 µM, first compound 0.000316 µM): 104%
viability, T/C (second compound 0.316 µM, first compound 0.001 µM): 109%
viability, T/C (second compound 0.316 µM, first compound 0.00316 µM): 102%
viability, T/C (second compound 0.316 µM, first compound 0.01 µM): 99.2%
viability, T/C [7]: 101%
viability, T/C [8]: 105%
viability, T/C (second compound 1 µM, first compound 0.000316 µM): 113%
viability, T/C (second compound 1 µM, first compound 0.001 µM): 112%
viability, T/C (second compound 1 µM, first compound 0.00316 µM): 104%
viability, T/C (second compound 1 µM, first compound 0.01 µM): 105%
viability, T/C [13]: 114%
viability, T/C [14]: 109%
viability, T/C (second compound 3.16 µM, first compound 0.000316 µM): 106%
viability, T/C (second compound 3.16 µM, first compound 0.001 µM): 119%
viability, T/C (second compound 3.16 µM, first compound 0.00316 µM): 118%
viability, T/C (second compound 3.16 µM, first compound 0.01 µM): 104%
viability, T/C [19]: 103%
viability, T/C [20]: 107%
viability, T/C (second compound 10 µM, first compound 0.000316 µM): 122%
viability, T/C (second compound 10 µM, first compound 0.001 µM): 111%
viability, T/C (second compound 10 µM, first compound 0.00316 µM): 110%
viability, T/C (second compound 10 µM, first compound 0.01 µM): 103%
viability, T/C [25]: 108%
viability, T/C [26]: 104%

IC50 (second compound 0.1 µM): > 10 µM
IC50 (second compound 0.316 µM): > 10 µM
IC50 (second compound 1 µM): > 10 µM
IC50 (second compound 3.16 µM): > 10 µM
IC50 (second compound 10 µM): > 10 µM
SMILES: NS(=O)(=O)OCC1CC(n2ccc3c(NC4CCc5ccccc54)ncnc32)CC1O (stereo not given) + CC(CO)NC(=O)c1cc(-c2ccc(Cl)cc2)nn(-c2cnn(C)c2)c1=O
viability, T/C [1]: 85.4%
viability, T/C [2]: 79.8%
viability, T/C [3]: 67.1%
viability, T/C [4]: 61.3%
viability, T/C [5]: 62.9%
viability, T/C [6]: 60.2%
viability, T/C [7]: 82.8%
viability, T/C [8]: 85.2%
viability, T/C [9]: 68.8%
viability, T/C [10]: 59.2%
viability, T/C [11]: 52.5%
viability, T/C [12]: 55.7%
viability, T/C [13]: 87.2%
viability, T/C [14]: 74.4%
viability, T/C [15]: 67.6%
viability, T/C [16]: 57.5%
viability, T/C [17]: 61.2%
viability, T/C [18]: 51.4%
viability, T/C [19]: 81.4%
viability, T/C [20]: 83.7%
viability, T/C [21]: 71.1%
viability, T/C [22]: 56.4%
viability, T/C [23]: 62.9%
viability, T/C [24]: 55.4%
viability, T/C [25]: 90.7%
viability, T/C [26]: 96.9%
viability, T/C [27]: 83.8%
viability, T/C [28]: 59.2%
viability, T/C [29]: 54%
viability, T/C [30]: 52.4%
